Paper PMC8355244, “A fragment-based approach identifies an allosteric pocket that impacts malate dehydrogenase activity” (Communications Biology, 2021)
“And” between values parts separate entries of the source, which are not always exact repeats. Equal entries are not always repeated.

How the values were obtained:
[1] = target: T1, PfMDH (Plasmodium falciparum, UniProt Q6VVP7); experiment: Thermal shift assay (TSA); assay type: binding; conditions: for TSA melting curve raw signal: triplicate columns; for TSA melting curve raw fluorescence signal: three replicate columns
T1 construct: The full-length WT PfMDH gene was cloned into pETM-13; made in house; host or cells: E. coli Rosetta 2 (DE3) pLysS
In short: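 10 μM PfMDH with 1 mM compound in 100 mM Na–phosphate pH 7.4, 400 mM NaCl, 10× Sypro Orange; 1% DMSO controls. Melting inflection points taken as Tm; shifts >1 °C read as stabilization, negative shifts as destabilization.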

[2] = target: T1, PfMDH; experiment: Kinetics experiment with varying L-malate, substrate inhibition model; assay type: biochemical; parameters: key to Ki (best-fit value, substrate inhibition model): Ki in mM; key to Vmax (best-fit value): Vmax in U/mg; 4PA kinetics raw data (rate): unit not given here; conditions: for Ki (best-fit value, substrate inhibition model) / Vmax (best-fit value): pH 10.2, Supplementary Table 6; for 4PA kinetics raw data (rate): replicates

T1 sequence (Q6VVP7 entry or part of it): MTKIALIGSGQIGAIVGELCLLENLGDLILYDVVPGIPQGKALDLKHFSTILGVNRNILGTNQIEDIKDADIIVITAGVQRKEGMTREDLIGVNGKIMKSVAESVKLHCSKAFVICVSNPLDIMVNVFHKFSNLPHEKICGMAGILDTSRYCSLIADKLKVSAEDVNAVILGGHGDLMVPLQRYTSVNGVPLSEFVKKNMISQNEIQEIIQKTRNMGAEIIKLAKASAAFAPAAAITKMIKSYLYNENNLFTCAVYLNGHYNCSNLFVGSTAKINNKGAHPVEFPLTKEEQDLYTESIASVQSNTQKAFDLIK

Compound: Nc1nc(-c2ccccc2)cs1 [4PA, 4-phenylthiazol-2-amine]
- ΔTm at 1000 µM ([1]; 1 mM compound vs DMSO control): -3 °C
- Tm ([1]; 1 mM compound, 10 μM PfMDH, DMSO control Tm 58): 55.0 ± 0.2 °C
- TSA melting curve raw signal ([1]; Temperature 25): 3101.562 and 3333.877 and 3419.875
- TSA melting curve raw signal ([1]; Temperature 28.5): 2982.864 and 3197.483 and 3331.476
- TSA melting curve raw signal ([1]; Temperature 29): 2965.133 and 3176.088 and 3316.215
- TSA melting curve raw signal ([1]; Temperature 29.5): 2946.457 and 3153.433 and 3298.876
- TSA melting curve raw signal ([1]; Temperature 30): 2926.726 and 3129.047 and 3278.959
- TSA melting curve raw signal ([1]; Temperature 30.5): 2906.089 and 3103.354 and 3257.233
- TSA melting curve raw signal ([1]; Temperature 31): 2885.408 and 3077.356 and 3234.634
- TSA melting curve raw signal ([1]; Temperature 31.5): 2865.452 and 3051.863 and 3212.437
- TSA melting curve raw signal ([1]; Temperature 32): 2847.461 and 3027.963 and 3192.183
- TSA melting curve raw signal ([1]; Temperature 32.5): 2831.845 and 3007.388 and 3175.246
- TSA melting curve raw signal ([1]; Temperature 33): 2819.491 and 2990.613 and 3162.466
- TSA melting curve raw signal ([1]; Temperature 33.5): 2810.837 and 2978.017 and 3154.456
- TSA melting curve raw signal ([1]; Temperature 34): 2806.172 and 2970.163 and 3151.8
- TSA melting curve raw signal ([1]; Temperature 34.5): 2805.279 and 2966.904 and 3154.834
- TSA melting curve raw signal ([1]; Temperature 35): 2808.767 and 2967.899 and 3163.624
- TSA melting curve raw signal ([1]; Temperature 35.5): 2816.443 and 2973.639 and 3178.538
- TSA melting curve raw signal ([1]; Temperature 36): 2828.317 and 2984.069 and 3199.383
- TSA melting curve raw signal ([1]; Temperature 36.5): 2844.427 and 2998.946 and 3225.589
- TSA melting curve raw signal ([1]; Temperature 37): 2864.693 and 3018.271 and 3256.517
- TSA melting curve raw signal ([1]; Temperature 37.5): 2888.742 and 3042.246 and 3291.976
- TSA melting curve raw signal ([1]; Temperature 38): 2916.555 and 3070.379 and 3330.731
- TSA melting curve raw signal ([1]; Temperature 38.5): 2948.507 and 3102.617 and 3372.906
- TSA melting curve raw signal ([1]; Temperature 39): 2984.548 and 3139.232 and 3418.523
- TSA melting curve raw signal ([1]; Temperature 39.5): 3025.238 and 3180.62 and 3468.123
- TSA melting curve raw signal ([1]; Temperature 40): 3070.846 and 3226.341 and 3521.558
- TSA melting curve raw signal ([1]; Temperature 40.5): 3121.424 and 3276.836 and 3579.878
- TSA melting curve raw signal ([1]; Temperature 41): 3176.735 and 3332.701 and 3643.235
- TSA melting curve raw signal ([1]; Temperature 41.5): 3236.92 and 3394.066 and 3712.066
- TSA melting curve raw signal ([1]; Temperature 42): 3301.878 and 3461.348 and 3786.574
- TSA melting curve raw signal ([1]; Temperature 42.5): 3371.782 and 3535.427 and 3867.61
- TSA melting curve raw signal ([1]; Temperature 43): 3446.967 and 3616.442 and 3955.318
- TSA melting curve raw signal ([1]; Temperature 43.5): 3527.686 and 3704.688 and 4050.074
- TSA melting curve raw signal ([1]; Temperature 44): 3614.17 and 3800.745 and 4152.165
- TSA melting curve raw signal ([1]; Temperature 44.5): 3706.596
- TSA melting curve raw fluorescence signal ([1]; Temperature 73.5): 6991.444 and 7655.524 and 7881.758
- TSA melting curve raw fluorescence signal ([1]; Temperature 74): 6939.612 and 7600.258 and 7826.265
- TSA melting curve raw fluorescence signal ([1]; Temperature 74.5): 6888.076 and 7546.666 and 7771.787
- TSA melting curve raw fluorescence signal ([1]; Temperature 75): 6836.407 and 7493.684 and 7717.224
- TSA melting curve raw fluorescence signal ([1]; Temperature 75.5): 6784.183 and 7441.52 and 7662.752
- TSA melting curve raw fluorescence signal ([1]; Temperature 76): 6731.402 and 7389.749 and 7608.451
- TSA melting curve raw fluorescence signal ([1]; Temperature 76.5): 6679.444 and 7337.884 and 7553.49
- TSA melting curve raw fluorescence signal ([1]; Temperature 77): 6628.226 and 7285.068 and 7497.822
- TSA melting curve raw fluorescence signal ([1]; Temperature 77.5): 6578.245 and 7231.451 and 7441.978
- TSA melting curve raw fluorescence signal ([1]; Temperature 78): 6529.803 and 7176.607 and 7385.969
- TSA melting curve raw fluorescence signal ([1]; Temperature 78.5): 6482.748 and 7121.157 and 7329.423
- TSA melting curve raw fluorescence signal ([1]; Temperature 79): 6436.76 and 7065.937 and 7274.048
- TSA melting curve raw fluorescence signal ([1]; Temperature 79.5): 6391.899 and 7012.239 and 7219.892
- TSA melting curve raw fluorescence signal ([1]; Temperature 80): 6347.542 and 6960.087 and 7166.546
- TSA melting curve raw fluorescence signal ([1]; Temperature 80.5): 6302.907 and 6909.426 and 7113.859
- TSA melting curve raw fluorescence signal ([1]; Temperature 81): 6257.989 and 6859.788 and 7062.389
- TSA melting curve raw fluorescence signal ([1]; Temperature 81.5): 6211.993 and 6810.814 and 7010.574
- TSA melting curve raw fluorescence signal ([1]; Temperature 82): 6164.6 and 6762.251 and 6958.299
- TSA melting curve raw fluorescence signal ([1]; Temperature 82.5): 6116.092 and 6712.951 and 6905.437
- TSA melting curve raw fluorescence signal ([1]; Temperature 83): 6067.721 and 6663.14 and 6852.004
- TSA melting curve raw fluorescence signal ([1]; Temperature 83.5): 6019.674 and 6612.874 and 6798.049
- TSA melting curve raw fluorescence signal ([1]; Temperature 84): 5972.405 and 6562.27 and 6744.245
- TSA melting curve raw fluorescence signal ([1]; Temperature 84.5): 5926.625 and 6510.347 and 6690.517
- TSA melting curve raw fluorescence signal ([1]; Temperature 85): 5882.391 and 6459.307 and 6637.567
- TSA melting curve raw fluorescence signal ([1]; Temperature 85.5): 5838.459 and 6409.022 and 6584.837
- TSA melting curve raw fluorescence signal ([1]; Temperature 86): 5794.143 and 6359.5 and 6531.78
- TSA melting curve raw fluorescence signal ([1]; Temperature 86.5): 5749.377 and 6310.687 and 6478.281
- TSA melting curve raw fluorescence signal ([1]; Temperature 87): 5703.739 and 6263.164 and 6424.447
- TSA melting curve raw fluorescence signal ([1]; Temperature 87.5): 5656.691 and 6215.001 and 6369.065
- TSA melting curve raw fluorescence signal ([1]; Temperature 88): 5609.372 and 6165.882 and 6313.087
- TSA melting curve raw fluorescence signal ([1]; Temperature 88.5): 5562.587 and 6115.522 and 6256.819
- TSA melting curve raw fluorescence signal ([1]; Temperature 89): 5515.924 and 6063.705 and 6199.979
- TSA melting curve raw fluorescence signal ([1]; Temperature 89.5): 5468.97 and 6010.228 and 6142.345
- TSA melting curve raw fluorescence signal ([1]; Temperature 90): 5422.458
- Ki (best-fit value, substrate inhibition model) ([2]; 63 μM): 63.00 ± 31.8
- Vmax (best-fit value) ([2]; 63 μM): 645.7 ± 29.0
- Ki (best-fit value, substrate inhibition model) ([2]; 125 μM): 72.93 ± 41.9
- Vmax (best-fit value) ([2]; 125 μM): 630.2 ± 28.5
- 4PA kinetics raw data (rate) ([2]; PfMDH + 63 uM, malate 0.078125 mM): 0.0098 and 0.01006 and 0.00834
- 4PA kinetics raw data (rate) ([2]; PfMDH + 63 uM, malate 0.15625 mM): 0.01266 and 0.01336 and 0.01325
- 4PA kinetics raw data (rate) ([2]; PfMDH + 63 uM, malate 0.3125 mM): 0.01621 and 0.01654 and 0.01602
- 4PA kinetics raw data (rate) ([2]; PfMDH + 63 uM, malate 0.625 mM): 0.02019 and 0.02009 and 0.02113
- 4PA kinetics raw data (rate) ([2]; PfMDH + 63 uM, malate 1.25 mM): 0.02141 and 0.02369 and 0.02088
- 4PA kinetics raw data (rate) ([2]; PfMDH + 63 uM, malate 2.5 mM): 0.02622 and 0.02453 and 0.02721
- 4PA kinetics raw data (rate) ([2]; PfMDH + 63 uM, malate 10 mM): 0.02549 and 0.02349 and 0.01973
- 4PA kinetics raw data (rate) ([2]; PfMDH + 125 uM, malate 0.078125 mM): 0.00804 and 0.006868 and 0.007099
- 4PA kinetics raw data (rate) ([2]; PfMDH + 125 uM, malate 0.15625 mM): 0.01089 and 0.01117 and 0.0101
- 4PA kinetics raw data (rate) ([2]; PfMDH + 125 uM, malate 0.3125 mM): 0.01419 and 0.01394 and 0.01404
- 4PA kinetics raw data (rate) ([2]; PfMDH + 125 uM, malate 0.625 mM): 0.01376 and 0.01789 and 0.01385
- 4PA kinetics raw data (rate) ([2]; PfMDH + 125 uM, malate 1.25 mM): 0.02005 and 0.02063 and 0.0175
- 4PA kinetics raw data (rate) ([2]; PfMDH + 125 uM, malate 2.5 mM): 0.02038 and 0.02019 and 0.02077
- 4PA kinetics raw data (rate) ([2]; PfMDH + 125 uM, malate 10 mM): 0.01925 and 0.01826 and 0.01944
- Ki change vs control ([2]; in presence of 63 μM compound): 5 fold
- Ki change vs control ([2]; in presence of 125 μM compound): 6 fold
- Vmax ([2]; in the presence of 63 μM compound, control 967.8 ± 99.0): 645.7 ± 29.0 U mg^−1
- Vmax ([2]; in the presence of 125 μM compound): 630.2 ± 28.5 U mg^−1
- mechanism of the inhibition ([2]; vs malate): non-competitive
